Patent US11999727B2 (Tango Therapeutics, Inc., priority 2020, dated 2024)

What was measured:
[1] = system: HAP1 MTAP-deleted cell line; test: Viability assay, MTAP-deleted cell line; type: cell-based; conditions: Homo sapiens, read-out: HAP1 MTAP deleted viability
From the text: Table 1 additionally indicates IC50 values in a viability assay for the MTAP-deleted cell line (column 10), indicating the effect of treatment with compound on cell survival.

PRMT5 [2] = biological target: T1, PRMT5 (Homo sapiens, UniProt O14744); test: PRMT5 biochemical IC50 assay with no cofactor; conditions: PRMT5, no cofactor
T1 construct: purchased Viva (custom protein)
From the text: Table 1 indicates IC50 values (μM) against PRMT5 for exemplary compounds in the presence of SAM as cofactor, with no cofactor, and with MTA as cofactor, respectively (columns 4-6). […] Ki values can be calculated from the IC50 values as described in the Examples section. As detailed in the Examples section, for the assay performed in the presence of SAM, IC50=Ki×1.5 (Ki=IC50/1.5).

[3] = system: HAP1 MTAP-intact cell line; test: SDMA in-cell western assay, HAP1 MTAP-intact; type: cell-based; conditions: Homo sapiens, HAP1, SDMA in-cell western, HAP1 MTAP-intact; read-out: MTAP HAP1 intact IC50
Method in brief: (§1)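 Readout: in-cell western detection of SDMA. Cells: HAP1 expressing endogenous MTAP and an MTAP-null HAP1 counterpart. Output: IC50.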

PRMT5 [4] = biological target: T1, PRMT5; test: PRMT5 biochemical IC50 assay with SAM as cofactor; conditions: PRMT5, SAM as cofactor; read-out: SAM IC50
PRMT5 [5] = biological target: T1, PRMT5; test: PRMT5 biochemical IC50 assay with MTA as cofactor; conditions: PRMT5, MTA as cofactor; read-out: MTA IC50
[6] = system: HAP1 MTAP-deleted cell line; test: SDMA in-cell western assay, HAP1 MTAP-deleted; type: cell-based; conditions: for IC50: Homo sapiens, HAP1, SDMA in-cell western, HAP1 MTAP-deleted; for MTAP intact/deleted ratio: SDMA in-cell western
Method in brief: as §1

[7] = HAP1, viability assay, MTAP-deleted cell line
[8] = read-out: HAP1 MTAP deleted IC50
[9] = IC50 ratio HAP1 MTAP-intact vs HAP1 MTAP-deleted
[10] = HAP1, viability, HAP1 MTAP-deleted cell line
[11] = read-out: No Cofactor/ rel IC50
[12] = read-out: HAP 1 MTAP deleted IC50
[13] = IC50 ratio HAP1 MTAP-intact / HAP1 MTAP-deleted

T1 sequence (O14744 whole entry): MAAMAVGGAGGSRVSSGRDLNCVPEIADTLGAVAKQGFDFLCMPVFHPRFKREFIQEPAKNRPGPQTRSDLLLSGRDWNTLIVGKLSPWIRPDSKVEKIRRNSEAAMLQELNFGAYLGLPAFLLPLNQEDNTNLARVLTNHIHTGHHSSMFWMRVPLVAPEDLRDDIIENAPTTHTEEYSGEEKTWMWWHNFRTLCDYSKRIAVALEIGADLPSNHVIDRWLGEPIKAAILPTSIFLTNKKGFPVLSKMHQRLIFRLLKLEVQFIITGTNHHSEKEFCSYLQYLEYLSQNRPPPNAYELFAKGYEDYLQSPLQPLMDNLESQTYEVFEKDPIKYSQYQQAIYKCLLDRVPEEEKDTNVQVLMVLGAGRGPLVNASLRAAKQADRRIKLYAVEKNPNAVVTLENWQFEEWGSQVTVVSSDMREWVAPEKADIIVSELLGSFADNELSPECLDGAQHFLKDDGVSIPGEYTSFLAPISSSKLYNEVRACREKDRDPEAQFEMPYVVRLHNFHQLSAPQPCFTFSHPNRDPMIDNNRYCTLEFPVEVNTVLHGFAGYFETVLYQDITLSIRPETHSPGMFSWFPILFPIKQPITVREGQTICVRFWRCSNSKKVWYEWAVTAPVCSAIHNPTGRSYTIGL
T1 sequence (Q9BQA1 whole entry partner): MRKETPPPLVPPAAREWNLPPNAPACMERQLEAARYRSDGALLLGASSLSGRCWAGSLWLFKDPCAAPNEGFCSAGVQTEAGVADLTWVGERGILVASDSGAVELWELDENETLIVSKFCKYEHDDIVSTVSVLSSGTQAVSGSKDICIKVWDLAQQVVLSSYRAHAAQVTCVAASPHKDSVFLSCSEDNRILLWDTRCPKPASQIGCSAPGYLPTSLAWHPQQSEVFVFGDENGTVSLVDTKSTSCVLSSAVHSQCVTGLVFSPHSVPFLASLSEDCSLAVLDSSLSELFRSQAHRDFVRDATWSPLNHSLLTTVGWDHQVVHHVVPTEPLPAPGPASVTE

SMILES: COCc1nc2cc([C@H]3CC[C@H](C)CN3C(=O)C(=O)Nc3cnc(N)c(C)c3)ccc2s1 (single isomer, unassigned) [Compound 1211]
- IC50 [1, 7]: < 1 µM
- IC50 (PRMT5 [2]; read-out: No Cofactor/rel IC50): 0.05 to 0.5 µM
- IC50 [3]: < 0.1 µM
- IC50 (PRMT5 [4]): 0.05 to 0.5 µM
- IC50 (PRMT5 [5]): < 0.05 µM
- IC50 [6, 8]: < 0.1 µM
- MTAP intact/deleted ratio [6, 9]: A (an IC50 ratio greater than or equal to 10 fold)

SMILES: Cc1cc(NC(=O)C(=O)N2C[C@@H](C)[C@@H](OC(F)(F)F)C[C@@H]2c2ccc(F)cc2)cnc1N (single isomer, unassigned) [Compound 1213]
- IC50 [1, 7]: < 1 µM
- IC50 (PRMT5 [2]; read-out: No Cofactor/rel IC50): < 0.05 µM
- IC50 [3]: 0.1 to 1 µM
- IC50 (PRMT5 [4]): 0.05 to 0.5 µM
- IC50 (PRMT5 [5]): < 0.05 µM
- IC50 [6, 8]: < 0.1 µM
- MTAP intact/deleted ratio [6, 9]: A (an IC50 ratio greater than or equal to 10 fold)

SMILES: C[C@@H]1CC[C@@H](c2ccc3sc(CCN(C)C)nc3c2)N(C(=O)C(=O)Nc2cnc(N)c(C3CC3)c2)C1 (single isomer, unassigned) [Compound 1218]
- IC50 [1, 7]: < 1 µM
- IC50 (PRMT5 [2]; read-out: No Cofactor/rel IC50): < 0.05 µM
- IC50 [3]: < 0.1 µM
- IC50 (PRMT5 [4]): < 0.05 µM
- IC50 (PRMT5 [5]): < 0.05 µM
- IC50 [6, 8]: < 0.1 µM
- MTAP intact/deleted ratio [6, 9]: A (an IC50 ratio greater than or equal to 10 fold)

SMILES: Cc1cc(NC(=O)C(=O)N2C[C@@H](C)CC[C@@H]2c2cccc(N3CCN(C)CC3)c2)cnc1N (single isomer, unassigned) [Compound 1229]
- IC50 [1, 7]: < 1 µM
- IC50 (PRMT5 [2]; read-out: No Cofactor/rel IC50): < 0.05 µM
- IC50 [3]: < 0.1 µM
- IC50 (PRMT5 [4]): < 0.05 µM
- IC50 (PRMT5 [5]): < 0.05 µM
- IC50 [6, 8]: < 0.1 µM
- MTAP intact/deleted ratio [6, 9]: B (an IC50 ratio greater than or equal to 3 fold but lower than 10 fold)

SMILES: CCc1cc(NC(=O)C(=O)N2C[C@H](C)CC[C@H]2c2ccc(N3CCN(C(C)C)CC3)cc2)cnc1N (single isomer, unassigned) [Compound 1234]
- IC50 [1, 7]: 1 to 10 µM
- IC50 (PRMT5 [2]; read-out: No Cofactor/rel IC50): > 0.5 µM
- IC50 [3]: > 1 µM
- IC50 (PRMT5 [4]): > 0.5 µM
- IC50 (PRMT5 [5]): > 0.5 µM
- IC50 [6, 8]: > 1 µM

SMILES: CO[C@@H]1C[C@@H](c2ccc3scnc3c2)N(C(=O)C(=O)Nc2cnc(N)c(C3CC3)c2)C[C@@H]1C (single isomer, unassigned) [Compound 1241]
- IC50 [1, 10]: 1 to 10 µM
- IC50 (PRMT5 [2]; [11]): > 0.5 µM
- IC50 [3]: > 1 µM
- IC50 (PRMT5 [4]): > 0.5 µM
- IC50 (PRMT5 [5]): > 0.5 µM
- IC50 [6, 12]: > 1 µM

SMILES: CCc1cc(NC(=O)C(=O)N2C[C@@H](C)CC[C@@H]2c2ccc(N3CCC4(CCCN(C)C4)CC3)cc2)cnc1N (single isomer, unassigned) [Compound 1243]
- IC50 [1, 10]: < 1 µM
- IC50 (PRMT5 [2]; [11]): < 0.05 µM
- IC50 [3]: 0.1 to 1 µM
- IC50 (PRMT5 [4]): 0.05 to 0.5 µM
- IC50 (PRMT5 [5]): < 0.05 µM
- IC50 [6, 12]: < 0.1 µM
- MTAP intact/deleted ratio [6, 13]: A (an IC50 ratio greater than or equal to 10 fold)

SMILES: C[C@@H]1CC[C@@H](c2ccc3c(cnn3CCN(C)C)c2)N(C(=O)C(=O)Nc2cnc(N)c(C3CC3)c2)C1 (single isomer, unassigned) [Compound 1249]
- IC50 [1, 10]: < 1 µM
- IC50 (PRMT5 [2]; [11]): < 0.05 µM
- IC50 [3]: 0.1 to 1 µM
- IC50 (PRMT5 [4]): 0.05 to 0.5 µM
- IC50 (PRMT5 [5]): < 0.05 µM
- IC50 [6, 12]: < 0.1 µM
- MTAP intact/deleted ratio [6, 13]: A (an IC50 ratio greater than or equal to 10 fold)

SMILES: C[C@H]1CC[C@H](c2ccc3[nH]ncc3c2)N(C(=O)C(=O)Nc2cnc(N)c(C3CC3)c2)C1 (single isomer, unassigned) [Compound 1251]
- IC50 [1, 10]: < 1 µM
- IC50 (PRMT5 [2]; [11]): < 0.05 µM
- IC50 [3]: < 0.1 µM
- IC50 (PRMT5 [4]): < 0.05 µM
- IC50 (PRMT5 [5]): < 0.05 µM
- IC50 [6, 12]: < 0.1 µM
- MTAP intact/deleted ratio [6, 13]: A (an IC50 ratio greater than or equal to 10 fold)

SMILES: Cc1cc(NC(=O)C(=O)N2C[C@@H](C)CC[C@@H]2c2cccc(C3CCN(C)CC3)c2)cnc1N (single isomer, unassigned) [Compound 1253]
- IC50 [1, 10]: < 1 µM
- IC50 (PRMT5 [2]; [11]): < 0.05 µM
- IC50 [3]: 0.1 to 1 µM
- IC50 (PRMT5 [4]): < 0.05 µM
- IC50 (PRMT5 [5]): < 0.05 µM
- IC50 [6, 12]: < 0.1 µM
- MTAP intact/deleted ratio [6, 13]: A (an IC50 ratio greater than or equal to 10 fold)

SMILES: C[C@@H]1CC[C@@H](c2ccc3sc(CCN(C)C)nc3c2)N(C(=O)C(=O)Nc2cncc(C(N)=O)c2)C1 (single isomer, unassigned) [Compound 1254]
- IC50 [1, 10]: < 1 µM
- IC50 (PRMT5 [2]; [11]): < 0.05 µM
- IC50 [3]: 0.1 to 1 µM
- IC50 (PRMT5 [4]): < 0.05 µM
- IC50 (PRMT5 [5]): < 0.05 µM
- IC50 [6, 12]: < 0.1 µM
- MTAP intact/deleted ratio [6, 13]: A (an IC50 ratio greater than or equal to 10 fold)
